One assay concerns the target T1, NTCP (Homo sapiens, UniProt Q14973).
T1 sequence (Q14973 1-349): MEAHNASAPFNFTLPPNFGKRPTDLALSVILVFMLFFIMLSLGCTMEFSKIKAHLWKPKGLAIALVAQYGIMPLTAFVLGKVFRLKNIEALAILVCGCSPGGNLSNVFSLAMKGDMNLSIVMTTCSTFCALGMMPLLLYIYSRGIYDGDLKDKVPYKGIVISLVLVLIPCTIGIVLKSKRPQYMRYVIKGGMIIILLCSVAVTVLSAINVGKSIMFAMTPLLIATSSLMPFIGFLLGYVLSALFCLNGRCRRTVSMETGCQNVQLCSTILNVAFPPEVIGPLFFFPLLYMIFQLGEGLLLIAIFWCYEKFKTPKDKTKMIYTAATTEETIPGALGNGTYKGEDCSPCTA
Put plainly: [3H]-TCA uptake assay (NTCP inhibition). It is filed as cell-based. As to conditions: IC50, given as a range, marked * (asterisk not explained). Put shortly:
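PTH and HepG2-NTCP cells kept 24 h in PMM to induce NTCP, then exposed 2 h to test compounds or DMSO. Uptake of 1 μM [3H]-taurocholate in Na+ Ringer's buffer (145 mM Na) ran 15 min at 37° C. Cells washed, lysed in 1% Triton X-100, and radioactivity counted by liquid scintillation.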
By IC50 is commonly meant the concentration at which inhibition is half-maximal. Low readings indicate greater potency in that assay, high ones weaker potency in that assay. `CCC1NC(=O)C(C2OC(Oc3cccc(NCc4ccccc4)c3)CC2C)N(C)C(=O)C(C(C)C)N(C)C(=O)C(CC(C)C)N(C)C(=O)C(CC(C)C)N(C)C(=O)C(C)NC(=O)C(C)NC(=O)C(CC(C)C)N(C)C(=O)C(C(C)C)NC(=O)C(CC(C)C)N(C)C(=O)CN(C)C1=O` (stereo not shown) [Compound 48A-o] registered an IC50 of 1000 to 100000 nM.

In turn, `CCC1NC(=O)C(C2OC(Oc3cccc(N(C)CC)c3)CC2C)N(C)C(=O)C(C(C)C)N(C)C(=O)C(CC(C)C)N(C)C(=O)C(CC(C)C)N(C)C(=O)C(C)NC(=O)C(C)NC(=O)C(CC(C)C)N(C)C(=O)C(C(C)C)NC(=O)C(CC(C)C)N(C)C(=O)CN(C)C1=O` (stereo not shown) [Compound 49A-o] yielded an IC50 of 1000 to 100000 nM.

`CCCN(C)c1cccc(OC2CC(C)C(C3C(=O)NC(CC)C(=O)N(C)CC(=O)N(C)C(CC(C)C)C(=O)NC(C(C)C)C(=O)N(C)C(CC(C)C)C(=O)NC(C)C(=O)NC(C)C(=O)N(C)C(CC(C)C)C(=O)N(C)C(CC(C)C)C(=O)N(C)C(C(C)C)C(=O)N3C)O2)c1` (stereo not shown) [Compound 50A-o] yielded a concentration for half-maximal inhibition (IC50) of 1000 to 100000 nM.

Consider `CCC1NC(=O)C(C2OC(Oc3ccc(N(C)C)cc3)CC2C)N(C)C(=O)C(C(C)C)N(C)C(=O)C(CC(C)C)N(C)C(=O)C(CC(C)C)N(C)C(=O)C(C)NC(=O)C(C)NC(=O)C(CC(C)C)N(C)C(=O)C(C(C)C)NC(=O)C(CC(C)C)N(C)C(=O)CN(C)C1=O` (stereo not shown) [Compound 51A-o], for which the IC50 was in the range of 1000 to 100000 nM.

`CCC1NC(=O)C(C2OC(Oc3cccc(OCc4ccccn4)c3)CC2C)N(C)C(=O)C(C(C)C)N(C)C(=O)C(CC(C)C)N(C)C(=O)C(CC(C)C)N(C)C(=O)C(C)NC(=O)C(C)NC(=O)C(CC(C)C)N(C)C(=O)C(C(C)C)NC(=O)C(CC(C)C)N(C)C(=O)CN(C)C1=O` (stereo not shown) [Compound 52A-o] registered an IC50 of 1000 to 100000 nM.

On to `CCC1NC(=O)C(C2OC(Oc3cccc(OCc4cccnc4)c3)CC2C)N(C)C(=O)C(C(C)C)N(C)C(=O)C(CC(C)C)N(C)C(=O)C(CC(C)C)N(C)C(=O)C(C)NC(=O)C(C)NC(=O)C(CC(C)C)N(C)C(=O)C(C(C)C)NC(=O)C(CC(C)C)N(C)C(=O)CN(C)C1=O` (stereo not shown) [Compound 53A-o], for which the midpoint of inhibition, the IC50, lay at 10000 nM.

The molecule `CCC1NC(=O)C(C2OC(Oc3cccc(OCc4ccncc4)c3)CC2C)N(C)C(=O)C(C(C)C)N(C)C(=O)C(CC(C)C)N(C)C(=O)C(CC(C)C)N(C)C(=O)C(C)NC(=O)C(C)NC(=O)C(CC(C)C)N(C)C(=O)C(C(C)C)NC(=O)C(CC(C)C)N(C)C(=O)CN(C)C1=O` (stereo not shown) [Compound 54A-o] came in with a half-inhibitory concentration (IC50) of 1000 to 100000 nM.

`CCC1NC(=O)C(C2OC(Oc3ccc(OCc4ccccc4)cc3)CC2C)N(C)C(=O)C(C(C)C)N(C)C(=O)C(CC(C)C)N(C)C(=O)C(CC(C)C)N(C)C(=O)C(C)NC(=O)C(C)NC(=O)C(CC(C)C)N(C)C(=O)C(C(C)C)NC(=O)C(CC(C)C)N(C)C(=O)CN(C)C1=O` (stereo not shown) [Compound 57A-o]: the IC50 was 1000 to 100000 nM.

The assay is the same for the next values; noted with them: given as a range, marked * (asterisk not explained).
`CCC1NC(=O)C(C2OC(Oc3cc(OCCOC)cc(OCC4CCOCC4)c3)CC2C)N(C)C(=O)C(C(C)C)N(C)C(=O)C(CC(C)C)N(C)C(=O)C(CC(C)C)N(C)C(=O)C(C)NC(=O)C(C)NC(=O)C(CC(C)C)N(C)C(=O)C(C(C)C)NC(=O)C(CC(C)C)N(C)C(=O)CN(C)C1=O` (stereo not shown) [Compound 55-o] registered a concentration for half-maximal inhibition (IC50) of 1000 to 100000 nM.

Consider `CCC1NC(=O)C(C2OC(Sc3cc(OCCOC)cc(OCC4CCOCC4)c3)CC2C)N(C)C(=O)C(C(C)C)N(C)C(=O)C(CC(C)C)N(C)C(=O)C(CC(C)C)N(C)C(=O)C(C)NC(=O)C(C)NC(=O)C(CC(C)C)N(C)C(=O)C(C(C)C)NC(=O)C(CC(C)C)N(C)C(=O)CN(C)C1=O` (stereo not shown) [Compound 55], for which the IC50 is 1000 to 100000 nM.

`CCC1NC(=O)C(C2OC(Oc3cc(OCCOC)cc(OCc4cccs4)c3)CC2C)N(C)C(=O)C(C(C)C)N(C)C(=O)C(CC(C)C)N(C)C(=O)C(CC(C)C)N(C)C(=O)C(C)NC(=O)C(C)NC(=O)C(CC(C)C)N(C)C(=O)C(C(C)C)NC(=O)C(CC(C)C)N(C)C(=O)CN(C)C1=O` (stereo not shown) [Compound 56-o]: the IC50 lay in the range of 1000 to 100000 nM.

Consider `CCC1NC(=O)C(C2OC(Sc3cc(OCCOC)cc(OCc4cccs4)c3)CC2C)N(C)C(=O)C(C(C)C)N(C)C(=O)C(CC(C)C)N(C)C(=O)C(CC(C)C)N(C)C(=O)C(C)NC(=O)C(C)NC(=O)C(CC(C)C)N(C)C(=O)C(C(C)C)NC(=O)C(CC(C)C)N(C)C(=O)CN(C)C1=O` (stereo not shown) [Compound 56], for which the IC50 lay within 1000 to 100000 nM.

`CCC1NC(=O)C(C2OC(Oc3cccc(OCc4ccc5ccc(=O)oc5c4)c3)CC2C)N(C)C(=O)C(C(C)C)N(C)C(=O)C(CC(C)C)N(C)C(=O)C(CC(C)C)N(C)C(=O)C(C)NC(=O)C(C)NC(=O)C(CC(C)C)N(C)C(=O)C(C(C)C)NC(=O)C(CC(C)C)N(C)C(=O)CN(C)C1=O` (stereo not shown) [Compound 58A-o]: the half-maximal inhibitory concentration (IC50) is 1000 to 100000 nM.

Still in this assay, the particulars now being: given as a range; assay not given.
In turn, `CCC1NC(=O)C(C2OC(Sc3cccc(NCc4ccccc4)c3)CC2C)N(C)C(=O)C(C(C)C)N(C)C(=O)C(CC(C)C)N(C)C(=O)C(CC(C)C)N(C)C(=O)C(C)NC(=O)C(C)NC(=O)C(CC(C)C)N(C)C(=O)C(C(C)C)NC(=O)C(CC(C)C)N(C)C(=O)CN(C)C1=O` [Compound 48A, [2-((2R,3R)-5-(3-(benzylamino)phenylthio)-3-methyltetrahydrofuran-2-yl)-2-(methylamino)acetic acid]^1-cyclosporin A] had a half-maximal inhibitory concentration (IC50) of 1 to 1000 nM.

`CCC1NC(=O)C(C2OC(Sc3cccc(N(C)CC)c3)CC2C)N(C)C(=O)C(C(C)C)N(C)C(=O)C(CC(C)C)N(C)C(=O)C(CC(C)C)N(C)C(=O)C(C)NC(=O)C(C)NC(=O)C(CC(C)C)N(C)C(=O)C(C(C)C)NC(=O)C(CC(C)C)N(C)C(=O)CN(C)C1=O` [Compound 49A, [2-((2R,3R)-5-(3-(ethyl(methyl)amino)phenylthio)-3-methyltetrahydrofuran-2-yl)-2-(methylamino)acetic acid]^1-cyclosporin A]: the IC50 was 1 to 1000 nM.

Molecule `CCCN(C)c1cccc(SC2CC(C)C(C3C(=O)NC(CC)C(=O)N(C)CC(=O)N(C)C(CC(C)C)C(=O)NC(C(C)C)C(=O)N(C)C(CC(C)C)C(=O)NC(C)C(=O)NC(C)C(=O)N(C)C(CC(C)C)C(=O)N(C)C(CC(C)C)C(=O)N(C)C(C(C)C)C(=O)N3C)O2)c1` [Compound 50A, [2-((2R,3R)-3-methyl-5-(3-(methyl(propyl)amino)phenylthio)tetrahydrofuran-2-yl)-2-(methylamino)acetic acid]^1-cyclosporin A] returned an IC50 of 1 to 1000 nM.

In the case of `CCC1NC(=O)C(C2OC(Sc3cccc(OCc4ccccn4)c3)CC2C)N(C)C(=O)C(C(C)C)N(C)C(=O)C(CC(C)C)N(C)C(=O)C(CC(C)C)N(C)C(=O)C(C)NC(=O)C(C)NC(=O)C(CC(C)C)N(C)C(=O)C(C(C)C)NC(=O)C(CC(C)C)N(C)C(=O)CN(C)C1=O` [Compound 52A, [2-((2R,3R)-3-methyl-5-(3-(pyridin-2-ylmethoxy)phenylthio)tetrahydrofuran-2-yl)-2-(methylamino)acetic acid]^1-cyclosporin A], the IC50 is 1 to 1000 nM.

`CCC1NC(=O)C(C2OC(Sc3cccc(OCc4cccnc4)c3)CC2C)N(C)C(=O)C(C(C)C)N(C)C(=O)C(CC(C)C)N(C)C(=O)C(CC(C)C)N(C)C(=O)C(C)NC(=O)C(C)NC(=O)C(CC(C)C)N(C)C(=O)C(C(C)C)NC(=O)C(CC(C)C)N(C)C(=O)CN(C)C1=O` [Compound 53A, [2-((2R,3R)-3-methyl-5-(3-(pyridin-3-ylmethoxy)phenylthio)tetrahydrofuran-2-yl)-2-(methylamino)acetic acid]^1-cyclosporin A] returned an IC50 of 1 to 1000 nM.

Molecule `CCC1NC(=O)C(C2OC(Sc3cccc(OCc4ccncc4)c3)CC2C)N(C)C(=O)C(C(C)C)N(C)C(=O)C(CC(C)C)N(C)C(=O)C(CC(C)C)N(C)C(=O)C(C)NC(=O)C(C)NC(=O)C(CC(C)C)N(C)C(=O)C(C(C)C)NC(=O)C(CC(C)C)N(C)C(=O)CN(C)C1=O` [Compound 54A, [2-((2,3R)-3-methyl-5-(3-(pyridin-4-ylmethoxy)phenylthio)tetrahydrofuran-2-yl)-2-(methylamino)acetic acid]^1-cyclosporin A] had an IC50 of 1 to 1000 nM.

Take `CCC1NC(=O)C(C2OC(Sc3ccc(OCc4ccccc4)cc3)CC2C)N(C)C(=O)C(C(C)C)N(C)C(=O)C(CC(C)C)N(C)C(=O)C(CC(C)C)N(C)C(=O)C(C)NC(=O)C(C)NC(=O)C(CC(C)C)N(C)C(=O)C(C(C)C)NC(=O)C(CC(C)C)N(C)C(=O)CN(C)C1=O` [Compound 57A, [2-((2R,3R)-5-(4-(benzyloxy)phenylthio)-3-methyltetrahydrofuran-2-yl)-2-(methylamino)acetic acid]^1-cyclosporin A]: the IC50 was 1 to 1000 nM.

The molecule `CCC1NC(=O)C(C2OC(Sc3cccc(OCc4ccc5ccc(=O)oc5c4)c3)CC2C)N(C)C(=O)C(C(C)C)N(C)C(=O)C(CC(C)C)N(C)C(=O)C(CC(C)C)N(C)C(=O)C(C)NC(=O)C(C)NC(=O)C(CC(C)C)N(C)C(=O)C(C(C)C)NC(=O)C(CC(C)C)N(C)C(=O)CN(C)C1=O` [Compound 58A, [2-((2R,3R)-3-methyl-5-(3-((2-oxo-2H-chromen-7-yl)methoxy)phenylthio)tetrahydrofuran-2-yl)-2-(methylamino)acetic acid]^1-cyclosporin A] had an IC50 of 1 to 1000 nM.

Take `CCC1NC(=O)C(C2OC(Sc3cc(Cl)cc(OC)c3)CC2C)N(C)C(=O)C(C(C)C)N(C)C(=O)C(CC(C)C)N(C)C(=O)C(CC(C)C)N(C)C(=O)C(C)NC(=O)C(C)NC(=O)C(CC(C)C)N(C)C(=O)C(C(C)C)NC(=O)C(CC(C)C)N(C)C(=O)CN(C)C1=O` [Compound 59A, [2-((2R,3R)-5-(3-chloro-5-methoxyphenylthio)-3-methyltetrahydrofuran-2-yl)-2-(methylamino)acetic acid]^1-cyclosporin A]: the half-maximal inhibitory concentration (IC50) lay in the range of 1 to 1000 nM.
